The structures appear in SMILES notation.

The target of the test is Kv7.2/7.3 (Homo sapiens, UniProt O43525+O43526). In words: Kv7.2/7.3 Activation Assay, QPatch single concentration screen. Type of test: cell-based. Also on record: host or cells: HEK cells, tetracycline-inducible expression; key: 1.2-2.9 (+); 3-3.9 (++); >4 (+++) fold increase over baseline; O represents open channel at holding potential. Conditions: Kv7.2/Kv7.3 co-expressing HEK cells, compound concentration 3 μM, steady-state current at end of 2 s pulse to −30 mV. In a few lines:
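Tetracycline-induced HEK cells expressing human Kv7.2/7.3, recorded 24 h post-induction by automated planar patch clamp. From −80 mV, 2 s steps to −30 mV then 100 ms to −120 mV; compound tested at 3 μM (0.1% DMSO). Steady-state current at end of −30 mV step gives fold increase over baseline.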
(The patch-clamp technique gives a direct electrical read-out from membranes.)
As to `CC(C)(C)CC(=O)Nc1nc2ccc(C(C)(C)O)c(F)c2n1C1(C)CCC1` [Example 481, N-(7-fluoro-6-(2-hydroxypropan-2-yl)-1-(1-methylcyclobutyl)-1H-benzo[d]imidazol-2-yl)-3,3-dimethylbutanamide], the “Kv7.2/7.3 Activity: increase over baseline in current” value (shortened to “Kv7.2/7.3 Activity: increase”) is recorded as “O”.

As for `CC(C)(CC(=O)Nc1nc2ccc(OC(F)F)cc2n1C(C)(C)C)C1CC1` [Example 427, N-(1-(tert-butyl)-6-(difluoromethoxy)-1H-benzo[d]imidazol-2-yl)-3-cyclopropyl-3-methylbutanamide], the “Kv7.2/7.3 Activity: increase” value is recorded as “++ (3-3.9 (++))”. The result for `CC(C)(C)Cn1c(NC(=O)CC(C)(O)c2ccccc2)nc2ccc(C#N)cc21` (single isomer, unassigned) [Example 341, N-(6-cyano-1-neopentyl-1H-benzo[d]imidazol-2-yl)-3-hydroxy-3-phenylbutanamide] reads “+ (1.2-2.9 (+))”.

Regarding `CC(C)(O)c1ccc2nc(NC(=O)CC3CC(F)(F)C3(F)F)n(C3CCC3)c2c1` (centres unmarked) [Example 353, N-(1-cyclobutyl-6-(2-hydroxypropan-2-yl)-1H-benzo[d]imidazol-2-yl)-2-(2,2,3,3-tetrafluorocyclobutyl)acetamide], the “Kv7.2/7.3 Activity: increase” value is recorded as “+ (1.2-2.9 (+))”. To `CC(C)(C)CC(=O)Nc1nc2ccc(C#N)cc2n1C(C)(C)C(F)(F)F` [Example 401, N-(6-cyano-1-(1,1,1-trifluoro-2-methylpropan-2-yl)-1H-benzo[d]imidazol-2-yl)-3,3-dimethylbutanamide] belongs “++ (3-3.9 (++))”; to `COc1cc(F)c2nc(NC(=O)CC(C)(C)C)n(C3CCC3)c2c1` [Example 469, N-(1-cyclobutyl-4-fluoro-6-methoxy-1H-benzo[d]imidazol-2-yl)-3,3-dimethylbutanamide], “+++ (>4 (+++) fold increase over baseline)”.

As to `CC(C)(C)CC(=O)Nc1nc2ccc(C3(F)COC3)cc2n1C1CCC1` [Example 432, N-(1-cyclobutyl-6-(3-fluorooxetan-3-yl)-1H-benzo[d]imidazol-2-yl)-3,3-dimethylbutanamide], the “Kv7.2/7.3 Activity: increase” value is recorded as “+++ (>4 (+++) fold increase over baseline)”. As to `CC(C)(CC(=O)Nc1nc2ccc(C#N)cc2n1C1(C)CCC1)C1CC1` [Example 379, N-(6-cyano-1-(1-methylcyclobutyl)-1H-benzo[d]imidazol-2-yl)-3-cyclopropyl-3-methylbutanamide], the “Kv7.2/7.3 Activity: increase” value is “++ (3-3.9 (++))”. For `CC(C)(C)CC(=O)Nc1nc2ccc(C#N)cc2n1C1(C)CCC1` [Example 337, N-(6-cyano-1-(1-methylcyclobutyl)-1H-benzo[d]imidazol-2-yl)-3,3-dimethylbutanamide], the “Kv7.2/7.3 Activity: increase” value is “++ (3-3.9 (++))”. Regarding `CC(O)(CC(=O)Nc1nc2cc(F)cc(C#N)c2n1C1(C)CCC1)c1ccccc1` (single isomer, unassigned) [Example 441, N-(7-cyano-5-fluoro-1-(1-methylcyclobutyl)-1H-benzo[d]imidazol-2-yl)-3-hydroxy-3-phenylbutanamide], the “Kv7.2/7.3 Activity: increase” value is “++ (3-3.9 (++))”.

Regarding `CC(C)(C)CC(=O)Nc1nc2ccc(C#N)c(F)c2n1C(C)(C)C` [Example 387, N-(1-(tert-butyl)-6-cyano-7-fluoro-1H-benzo[d]imidazol-2-yl)-3,3-dimethylbutanamide], the “Kv7.2/7.3 Activity: increase” value was “++ (3-3.9 (++))”. As to `CC(O)(CC(=O)Nc1nc2ccc(C#N)cc2n1CC(F)(F)F)c1ccccc1F` (single isomer, unassigned) [Example 483, N-(6-cyano-1-(2,2,2-trifluoroethyl)-1H-benzo[d]imidazol-2-yl)-3-(2-fluorophenyl)-3-hydroxybutanamide], the “Kv7.2/7.3 Activity: increase” value was “++ (3-3.9 (++))”. Regarding `CC(C)(C)n1c(NC(=O)CC(C)(C)C(F)(F)F)nc2c(F)cc(C#N)c(F)c21` [Example 349, N-(1-(tert-butyl)-6-cyano-4,7-difluoro-1H-benzo[d]imidazol-2-yl)-4,4,4-trifluoro-3,3-dimethylbutanamide], the “Kv7.2/7.3 Activity: increase” value is reported as “++ (3-3.9 (++))”.

In the case of `CC(C)(C)n1c(NC(=O)CC(C)(C)C(F)(F)F)nc2ccc(C#N)c(F)c21` [Example 444, N-(1-(tert-butyl)-6-cyano-7-fluoro-1H-benzo[d]imidazol-2-yl)-4,4,4-trifluoro-3,3-dimethylbutanamide], the “Kv7.2/7.3 Activity: increase” value is recorded as “++ (3-3.9 (++))”. For `C[C@H](C(=O)Nc1nc2c(F)cc(C(C)(C)O)cc2n1C1CCC1)C(C)(C)C` [Example 443, (S)-N-(1-cyclobutyl-4-fluoro-6-(2-hydroxypropan-2-yl)-1H-benzo[d]imidazol-2-yl)-2,3,3-trimethylbutanamide], the “Kv7.2/7.3 Activity: increase” value is “++ (3-3.9 (++))”. On to `CC(C)(O)c1cc(F)c2nc(NC(=O)CC3CC(F)(F)C3(F)F)n(C3CCC3)c2c1` (single isomer, unassigned) [Example 466, N-(1-cyclobutyl-4-fluoro-6-(2-hydroxypropan-2-yl)-1H-benzo[d]imidazol-2-yl)-2-(2,2,3,3-tetrafluorocyclobutyl)acetamide], for which the “Kv7.2/7.3 Activity: increase” value is reported as “++ (3-3.9 (++))”.

Turning to `CC(C)(O)c1ccc2nc(NC(=O)CC3CC(F)(F)C3(F)F)n(C3CCC3)c2c1` (single isomer, unassigned) [Example 398, N-(1-cyclobutyl-6-(2-hydroxypropan-2-yl)-1H-benzo[d]imidazol-2-yl)-2-(2,2,3,3-tetrafluorocyclobutyl)acetamide], the “Kv7.2/7.3 Activity: increase” value is “+ (1.2-2.9 (+))”. To `CC(C)(C)CC(=O)Nc1nc2ccc(F)cc2n1C1CCC1` [Example 417, N-(1-cyclobutyl-6-fluoro-1H-benzo[d]imidazol-2-yl)-3,3-dimethylbutanamide] belongs “++ (3-3.9 (++))”; to `CC(CF)(CF)CC(=O)Nc1nc2ccc(C(C)(C)O)cc2n1C1CCC1` [Example 370, N-(1-cyclobutyl-6-(2-hydroxypropan-2-yl)-1H-benzo[d]imidazol-2-yl)-4-fluoro-3-(fluoromethyl)-3-methylbutanamide], “++ (3-3.9 (++))”. `CC(C)(C)CC(=O)Nc1nc2ccc(Cl)c(C#N)c2n1C1CCC1` [Example 439, N-(6-chloro-7-cyano-1-cyclobutyl-1H-benzo[d]imidazol-2-yl)-3,3-dimethylbutanamide]: the “Kv7.2/7.3 Activity: increase” value is listed as “+ (1.2-2.9 (+))”. For the molecule `CC(O)(CC(=O)Nc1nc2ccc(OC(F)F)cc2n1C1CCC1)c1ccccc1` (single isomer, unassigned) [Example 402, N-(1-cyclobutyl-6-(difluoromethoxy)-1H-benzo[d]imidazol-2-yl)-3-hydroxy-3-phenylbutanamide], the “Kv7.2/7.3 Activity: increase” value is reported as “++ (3-3.9 (++))”. For `CC(C)(CC(=O)Nc1nc2c(F)cc(OC(F)F)cc2n1C1CCC1)C1CC1` [Example 390, N-(1-cyclobutyl-6-(difluoromethoxy)-4-fluoro-1H-benzo[d]imidazol-2-yl)-3-cyclopropyl-3-methylbutanamide], the “Kv7.2/7.3 Activity: increase” value is on record as “+ (1.2-2.9 (+))”. Regarding `CC(C)(C)CC(=O)Nc1nc2ccc(OC(F)F)cc2n1C1CCC1` [Example 389, N-(1-cyclobutyl-6-(difluoromethoxy)-1H-benzo[d]imidazol-2-yl)-3,3-dimethylbutanamide], the “Kv7.2/7.3 Activity: increase” value is listed as “++ (3-3.9 (++))”. Turning to `CC1(CC(=O)Nc2nc3c(F)cc(C(C)(C)O)cc3n2C2(C)CCC2)CC1` [Example 474, N-(4-fluoro-6-(2-hydroxypropan-2-yl)-1-(1-methylcyclobutyl)-1H-benzo[d]imidazol-2-yl)-2-(1-methylcyclopropyl)acetamide], the “Kv7.2/7.3 Activity: increase” value is on record as “O”. The result for `CC(O)(CC(=O)Nc1nc2ccc(C#N)cc2n1C1(C)CCC1)c1ccc(F)cc1F` (single isomer, unassigned) [Example 430, N-(6-cyano-1-(1-methylcyclobutyl)-1H-benzo[d]imidazol-2-yl)-3-(2,4-difluorophenyl)-3-hydroxybutanamide] reads “++ (3-3.9 (++))”; that for `CC(C)(C)CC(=O)Nc1nc2c(F)cc(C(O)(CF)CF)cc2n1C1CCC1` [Example 479, N-(1-cyclobutyl-6-(1,3-difluoro-2-hydroxypropan-2-yl)-4-fluoro-1H-benzo[d]imidazol-2-yl)-3,3-dimethylbutanamide], “++ (3-3.9 (++))”; that for `[2H]C([2H])([2H])C(CC(=O)Nc1nc2ccc(C(C)(C)O)cc2n1C1CCC1)(C([2H])([2H])[2H])C([2H])([2H])[2H]` [Example 448, N-(1-cyclobutyl-6-(2-hydroxypropan-2-yl)-1H-benzo[d]imidazol-2-yl)-3,3-bis(methyl-d3)butanamide], “++ (3-3.9 (++))”. On to `CC(O)(CC(=O)Nc1nc2cc(F)c(C#N)cc2n1C1(C)CCC1)c1ccccc1F` (single isomer, unassigned) [Example 478, N-(6-cyano-5-fluoro-1-(1-methylcyclobutyl)-1H-benzo[d]imidazol-2-yl)-3-(2-fluorophenyl)-3-hydroxybutanamide], for which the “Kv7.2/7.3 Activity: increase” value is reported as “+ (1.2-2.9 (+))”. Regarding `CC(C)(O)c1cc(F)c2nc(NC(=O)CSC(F)(F)F)n(C3CCC3)c2c1` [Example 413, N-(1-cyclobutyl-4-fluoro-6-(2-hydroxypropan-2-yl)-1H-benzo[d]imidazol-2-yl)-2-((trifluoromethyl)thio)acetamide], the “Kv7.2/7.3 Activity: increase” value is “+++ (>4 (+++) fold increase over baseline)”.

These data come from patent US10851067B2, “Kv7 channel activators compositions and methods of use” (Knopp Biosciences LLC, priority 2018, dated 2020).
